# Patent publication US9179694B2, “Method and composition for enhancing milk production and milk component concentrations” (PURINA ANIMAL NUTRITION LLC, priority 2003, dated 2015)
# Test: Dry matter feed intake in sorbitol feeding trials
# Assay type: in vivo, Holstein cows
# Settings: for increase in dry matter feed intake: Pre-Partum Trial #1 (75 g/day wk −3..−1 only) versus Control Trial #1
# Description: To determine the dry matter weight (or dry matter basis or dry basis) of a particular sample, the sample is first weighed. The weighed sample is then dried in an oven at a temperature that is adequate to drive off moisture from the sample without degrading the sample components, such as a temperature ranging from about 100° C. to about 110° C. The oven drying is continued until the weight of the dried sample remains constant, despite additional oven drying. During the pre-partum period, for all cows utilized in Example One or Example Two, the pre-partum control feed, as modified to include any sorbitol indicated above for the different trials, was placed in the feeding troughs of the different cows participating in the different trials once daily in the morning. Thereafter, these different pre-partum feeds (the pre-partum control feed, including any incorporated sorbitol dosage of a particular trial during the pre-partum period) of the different trials were lightly stirred, separately and individually, in front of the cows of the different trials three times per day during the pre-partum period to encourage additional feed ingestion by the cows. Leftover rations from the previous day's feeding were collected and weighed from each feeding trough during the pre-partum period, prior to feeding the test cows on a subsequent day. The cows of the different trials received a sufficient amount of the pre-partum to ensure at least about ten weight percent of the pre-partum feeds of the different trials remained in the feeding troughs of each trial each day of the pre-partum period, based on the amount of the different pre-partum feeds of the different trials provided at the beginning of each day. Feed refusals were measured daily during the pre-partum period, and water was supplied ad libitum. During the early post-partum period, for all cows utilized in Example One or Example Two, the first post-partum control feed, as modified to include any sorbitol indicated above for the different trials, was placed in the feeding troughs of the different cows participating in the different trials once daily in the morning. Thereafter, these first post-partum feeds (the first post-partum control feed, including any incorporated sorbitol dosage of a particular trial during the early post-partum period) of the different trials were lightly stirred, separately and individually, in front of the cows of the different trials three times per day during the early post-partum period to encourage additional feed ingestion by the cows. Leftover rations from the previous day's feeding were collected and weighed from each feeding trough during the early post-partum period, prior to feeding the test cows on a subsequent day. The cows of the different trials received a sufficient amount of the first post-partum feed to ensure at least about ten weight percent of the first post-partum feeds of the different trials remained in the feeding troughs of each trial each day of the early post-partum period, based on the amount of the different first post-partum feeds of the different trials provided at the beginning of each day. Feed refusals were measured daily during the early post-partum period, and water was supplied ad libitum. […] Thereafter, the second post-partum control feed were lightly stirred, separately and individually, in front of the cows of the different trials three times per day during the weeks +5 through +8 to encourage additional feed ingestion by the cows. Leftover rations from the previous day's feeding were collected and weighed from each feeding trough during weeks +5 through +8, prior to feeding the test cows on a subsequent day. […]
smiles,measurement,setting,value
OC[C@@H](O)[C@@H](O)[C@H](O)[C@@H](O)CO [sorbitol],Dry Matter Feed Intake,"Pre-Partum Trial #1 (75/0/0 g/day in wk −3..−1/+1..+4/+5..+8), multiparious cows, weeks +1 through +8",44.5 lbs/day
same,Dry Matter Feed Intake,"Pre-Partum Trial #1 (75/0/0 g/day in wk −3..−1/+1..+4/+5..+8), multiparious cows, weeks −3 through −1",29.9 lbs/day
same,Dry Matter Feed Intake,"Pre-Partum Trial #1 (75/0/0 g/day in wk −3..−1/+1..+4/+5..+8), primiparious cows, weeks +1 through +8",34.2 lbs/day
same,Dry Matter Feed Intake,"Pre-Partum Trial #1 (75/0/0 g/day in wk −3..−1/+1..+4/+5..+8), primiparious cows, weeks −3 through −1",17.8 lbs/day
same,increase in dry matter feed intake,"multiparious cows, weeks +1 through +8",+9.6%
same,increase in dry matter feed intake,"primiparious cows, weeks +1 through +8",+7.9%
same,Dry Matter Intake,"Pre-Partum Trial #2 (75/0/100 g/day in wk −3..−1/+1..+4/+5..+8), multiparious cows, week +1",32.7 lbs/day
same,Change in Dry Matter Feed Intake,"Pre-Partum Trial #2 (75/0/100 g/day in wk −3..−1/+1..+4/+5..+8), multiparious cows, week +1 versus −1",1.97 lbs/day
same,Dry Matter Intake,"Pre-Partum Trial #2 (75/0/100 g/day in wk −3..−1/+1..+4/+5..+8), multiparious cows, week +2",42.5 lbs/day
same,Dry Matter Intake,"Pre-Partum Trial #2 (75/0/100 g/day in wk −3..−1/+1..+4/+5..+8), multiparious cows, week +3",46.2 lbs/day
same,Dry Matter Intake,"Pre-Partum Trial #2 (75/0/100 g/day in wk −3..−1/+1..+4/+5..+8), multiparious cows, week +4",50.1 lbs/day
same,Dry Matter Intake,"Pre-Partum Trial #2 (75/0/100 g/day in wk −3..−1/+1..+4/+5..+8), multiparious cows, week +5",52.4 lbs/day
same,Dry Matter Intake,"Pre-Partum Trial #2 (75/0/100 g/day in wk −3..−1/+1..+4/+5..+8), multiparious cows, week +6",53.9 lbs/day
same,Dry Matter Intake,"Pre-Partum Trial #2 (75/0/100 g/day in wk −3..−1/+1..+4/+5..+8), multiparious cows, week +7",56.1 lbs/day
same,Dry Matter Intake,"Pre-Partum Trial #2 (75/0/100 g/day in wk −3..−1/+1..+4/+5..+8), multiparious cows, week +8",53.8 lbs/day
same,Dry Matter Intake,"Pre-Partum Trial #2 (75/0/100 g/day in wk −3..−1/+1..+4/+5..+8), multiparious cows, week −1",30.7 lbs/day
same,Dry Matter Intake,"Pre-Partum Trial #2 (75/0/100 g/day in wk −3..−1/+1..+4/+5..+8), multiparious cows, week −2",33.5 lbs/day
same,Change in Dry Matter Feed Intake,"Pre-Partum Trial #2 (75/0/100 g/day in wk −3..−1/+1..+4/+5..+8), multiparious cows, week −2 versus −1",−2.88 lbs/day
same,Dry Matter Intake,"Pre-Partum Trial #2 (75/0/100 g/day in wk −3..−1/+1..+4/+5..+8), multiparious cows, week −3",30.9 lbs/day
same,Dry Matter Intake,"Pre-Partum Trial #2 (75/0/100 g/day in wk −3..−1/+1..+4/+5..+8), multiparious cows, weeks +1 through +4",42.9 lbs/day
same,Dry Matter Intake,"Pre-Partum Trial #2 (75/0/100 g/day in wk −3..−1/+1..+4/+5..+8), multiparious cows, weeks +1 through +8",48.4 lbs/day
same,Dry Matter Intake,"Pre-Partum Trial #2 (75/0/100 g/day in wk −3..−1/+1..+4/+5..+8), multiparious cows, weeks +5 through +8",54.2 lbs/day
same,Dry Matter Intake,"Pre-Partum Trial #2 (75/0/100 g/day in wk −3..−1/+1..+4/+5..+8), multiparious cows, weeks −3 through −1",31.8 lbs/day
same,decrease in dry matter feed intake,"Pre-Partum Trial #2 (75 g/day pre-partum) versus Control Trial #2, multiparious cows, pre-partum period (weeks −3 through −1)",7.0%
same,Dry Matter Intake,"Pre/Post Trial #1 (150/125/100 g/day in wk −3..−1/+1..+4/+5..+8), multiparious cows, week +1",36.6 lbs/day
same,Dry Matter Feed Intake,"Pre/Post Trial #1 (150/125/100 g/day in wk −3..−1/+1..+4/+5..+8), multiparious cows, week +1, two-trial comparison with Control Trial #2 (Table 22)",36.7 lbs/day
same,Change in Dry Matter Feed Intake,"Pre/Post Trial #1 (150/125/100 g/day in wk −3..−1/+1..+4/+5..+8), multiparious cows, week +1 versus −1",3.37 lbs/day
same,Change in Dry Matter Feed Intake,"Pre/Post Trial #1 (150/125/100 g/day in wk −3..−1/+1..+4/+5..+8), multiparious cows, week +1 versus −1, two-trial comparison with Control Trial #2 (Table 22)",3.35 lbs/day
same,Dry Matter Intake,"Pre/Post Trial #1 (150/125/100 g/day in wk −3..−1/+1..+4/+5..+8), multiparious cows, week +2",45.3 lbs/day
same,Dry Matter Feed Intake,"Pre/Post Trial #1 (150/125/100 g/day in wk −3..−1/+1..+4/+5..+8), multiparious cows, week +2, two-trial comparison with Control Trial #2 (Table 22)",45.6 lbs/day
same,Dry Matter Intake,"Pre/Post Trial #1 (150/125/100 g/day in wk −3..−1/+1..+4/+5..+8), multiparious cows, week +3",48.5 lbs/day
same,Dry Matter Feed Intake,"Pre/Post Trial #1 (150/125/100 g/day in wk −3..−1/+1..+4/+5..+8), multiparious cows, week +3, two-trial comparison with Control Trial #2 (Table 22)",48.8 lbs/day
same,Dry Matter Intake,"Pre/Post Trial #1 (150/125/100 g/day in wk −3..−1/+1..+4/+5..+8), multiparious cows, week +4",51.2 lbs/day
same,Dry Matter Feed Intake,"Pre/Post Trial #1 (150/125/100 g/day in wk −3..−1/+1..+4/+5..+8), multiparious cows, week +4, two-trial comparison with Control Trial #2 (Table 22)",51.5 lbs/day
same,Dry Matter Intake,"Pre/Post Trial #1 (150/125/100 g/day in wk −3..−1/+1..+4/+5..+8), multiparious cows, week +5",53.9 lbs/day
same,Dry Matter Feed Intake,"Pre/Post Trial #1 (150/125/100 g/day in wk −3..−1/+1..+4/+5..+8), multiparious cows, week +5, two-trial comparison with Control Trial #2 (Table 22)",54.2 lbs/day
same,Dry Matter Intake,"Pre/Post Trial #1 (150/125/100 g/day in wk −3..−1/+1..+4/+5..+8), multiparious cows, week +6",53.7 lbs/day
same,Dry Matter Feed Intake,"Pre/Post Trial #1 (150/125/100 g/day in wk −3..−1/+1..+4/+5..+8), multiparious cows, week +6, two-trial comparison with Control Trial #2 (Table 22)",54.1 lbs/day
same,Dry Matter Intake,"Pre/Post Trial #1 (150/125/100 g/day in wk −3..−1/+1..+4/+5..+8), multiparious cows, week +7",54.5 lbs/day
